Our source for the IC50 values is patent US20210070748A1, “INHIBITORS OF BRUTONS TYROSINE KINASE” (Pharmacyclics LLC, priority 2015, published 2021).

One test addresses T1, BTK-WT (Homo sapiens, UniProt Q06187).
T1 construct: purified from insect cells as a full-length construct containing an N-terminal 6X-His tag; His6 (N); made in house; host or cells: insect cells (baculovirus Sf21 in Method B)
Kind of test: Btk in vitro inhibitory activity (one of Method A TR-FRET, Method B electrophoretic mobility shift, Method C radiometric filter binding). It counts as biochemical. Conditions: read-out: IC50 BTK-WT. Here is the method: Btk kinase activity is determined using a time-resolved fluorescence resonance energy transfer (TR-FRET) methodology. Measurements are performed in a reaction volume of 50 μL using 96-well assay plates. […] The reaction is quenched by the addition of 1.2 equivalents of EDTA (relative to divalent cation) in 25 μL of 1× Lance buffer (Perkin-Elmer). […] The TR-FRET signal is measured on a multimode plate reader with an excitation wavelength (λEx) of 330 nm and detection wavelengths (λEm) of 615 and 665 nm. Activity is determined by the ratio of the fluorescence at 665 nm to that at 615 nm. For each compound, enzyme activity is measured at various concentrations of compound. Negative control reactions are performed in the absence of inhibitor in replicates of six, and two no-enzyme controls are used to determine baseline fluorescence levels. Inhibition constants, Ki(app), were obtained using the program BatchKi(Kuzmic et al. (2000), Anal. Biochem. 286:45-50). IC50s are obtained according to the equation:
IC50={Ki(app)/(1+[ATP]/Km^ATP)}+[E]total/2;
Kinase activity is measured in vitro using electrophoretic mobility shift assay. The kinase reactions are assembled in a total volume of 25 μL in 384 well plates. […] The reaction is incubated for one hour and is quenched by the addition of 45 μL of termination buffer (100 mM HEPES, pH7.5, 0.01% Triton X-100, 30 mM EDTA). The terminated reactions are analyzed using 12 channel LabChip® 3000 microfluidic detection instrument (Caliper Life Sciences). […] Change in the relative fluorescence intensity of the substrate and product peaks is the parameter measured, reflecting enzyme activity. In the presence of an inhibitor, the ratio between product and substrate is altered: the signal of the product decreases, while the signal of the substrate increases.
Activity in each sample is determined as the product to sum ratio (PSR): P/(S+P), where P is the peak height of the product peptide and S is the peak height of the substrate peptide. For each compound, enzyme activity is measured at various concentrations (12 concentrations of compound spaced by 3× dilution intervals). Negative control samples (0%-inhibition in the absence of inhibitor) and positive control samples (100%-inhibition, in the presence of 20 mM EDTA) are assembled in replicates of four and are used to calculate %-inhibition values for each inhibitor at each concentration. Percent inhibition (Pinh) is determined using following equation:
Pinh=(PSR0%-PSRinh)/(PSR0%−PSR100%)*100, where PSRinh is the product sum ratio in the presence of inhibitor, PSR0% is the average product sum ration in the absence of inhibitor and PSR100% is the average product sum ratio in 100%-inhibition control samples;
The IC50 values of inhibitors are determined by 4 parameter sigmoidal dose-response model fitting of the inhibition curves (Pinh versus inhibitor concentration) using XLfit 4 software.
Human Btk kinase (Genbank accession # NP_000052) was purified from insect cells as a full-length construct containing an N-terminal 6X-His tag. Btk kinase activity was determined using a radiometric filter binding assay. Measurements are performed in a low μL reaction volume 384-well assay plates. […] IC50 values and curve fits were obtained using Prism (GraphPad Software).

The next test addresses T2, ITK (Homo sapiens, UniProt Q08881).
T2 sequence (Q08881 1-620): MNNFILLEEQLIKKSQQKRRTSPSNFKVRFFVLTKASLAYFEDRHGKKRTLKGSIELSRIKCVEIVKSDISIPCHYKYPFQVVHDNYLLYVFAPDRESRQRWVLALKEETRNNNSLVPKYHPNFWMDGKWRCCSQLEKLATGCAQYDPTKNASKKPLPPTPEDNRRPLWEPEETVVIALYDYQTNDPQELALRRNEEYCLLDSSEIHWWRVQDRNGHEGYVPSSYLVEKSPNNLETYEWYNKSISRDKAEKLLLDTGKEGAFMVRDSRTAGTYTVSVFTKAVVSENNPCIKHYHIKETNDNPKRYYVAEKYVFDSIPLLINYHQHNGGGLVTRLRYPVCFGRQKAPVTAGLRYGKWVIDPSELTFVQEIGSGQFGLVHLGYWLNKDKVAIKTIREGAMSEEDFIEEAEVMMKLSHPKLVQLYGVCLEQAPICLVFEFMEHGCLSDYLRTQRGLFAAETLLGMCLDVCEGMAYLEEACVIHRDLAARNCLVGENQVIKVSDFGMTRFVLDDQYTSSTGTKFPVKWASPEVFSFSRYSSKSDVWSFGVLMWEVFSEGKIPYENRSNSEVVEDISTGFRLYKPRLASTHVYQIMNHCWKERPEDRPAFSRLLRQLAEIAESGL
Description: Inhibition of a panel of kinases, in vitro HotSpot kinase assay: ITK. The class given is biochemical. Here is the method: The degree of inhibition of a panel of kinases is determined using the in vitro HotSpot kinase assay (purified enzymes, ^33P-ATP, an appropriate substrate and 1 μM ATP).

[1] abbreviates: Table 15, C compounds, 1 μM ATP.

Read-outs that look alike come from different tables or passages of the source.

As usually defined, the IC50 is the concentration that gives 50% inhibition.

T1 sequence (Q06187 whole entry): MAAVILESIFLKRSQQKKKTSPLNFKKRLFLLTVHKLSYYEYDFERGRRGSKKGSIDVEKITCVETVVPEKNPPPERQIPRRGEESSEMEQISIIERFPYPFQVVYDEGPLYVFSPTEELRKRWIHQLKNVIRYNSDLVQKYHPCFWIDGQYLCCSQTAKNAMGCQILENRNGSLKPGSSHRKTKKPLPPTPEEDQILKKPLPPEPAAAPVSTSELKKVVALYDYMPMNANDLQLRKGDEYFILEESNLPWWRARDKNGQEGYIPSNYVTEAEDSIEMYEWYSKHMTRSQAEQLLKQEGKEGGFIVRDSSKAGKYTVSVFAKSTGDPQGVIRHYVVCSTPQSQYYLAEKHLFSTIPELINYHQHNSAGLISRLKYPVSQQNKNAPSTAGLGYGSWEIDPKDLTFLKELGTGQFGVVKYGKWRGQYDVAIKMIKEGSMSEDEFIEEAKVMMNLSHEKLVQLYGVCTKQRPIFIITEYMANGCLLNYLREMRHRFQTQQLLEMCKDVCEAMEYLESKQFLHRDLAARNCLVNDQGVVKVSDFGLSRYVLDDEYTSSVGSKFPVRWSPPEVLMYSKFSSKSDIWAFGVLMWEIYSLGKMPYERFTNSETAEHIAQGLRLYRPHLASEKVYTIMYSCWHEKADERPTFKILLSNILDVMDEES

`C=CC(=O)N1CCC[C@@H](Nc2nnc(C(N)=O)c(Nc3ccc(-c4cnn(C(=O)C=C)c4)cc3)n2)C1` [Example E-60, (R)-5-(4-(1-acryloyl-1H-pyrazol-4-yl)phenylamino)-3-(1-acryloylpiperidin-3-ylamino)-1,2,4-triazine-6-carboxamide]: the IC50 on BTK-WT (E compounds, Table 17) was not above 10 nM; against ITK (E compounds, Table 17) it was 10 to 100 nM.

Consider `C=CC(=O)N[C@@H]1CCCN(c2nnc(C(N)=O)c(Nc3ccc(C(C)C)cc3)n2)C1` [Example E-21, (R)-3-(3-acrylamidopiperidin-1-yl)-5-(4-isopropylphenylamino)-1,2,4-triazine-6-carboxamide], for which the IC50 lay within 10 to 100 nM at BTK-WT (E compounds, Table 17) and 100 to 1000 nM at ITK (E compounds, Table 17).

`C=CC(=O)N1CCC[C@@H](Nc2nnc(C(N)=O)c(Nc3ccc(CN[C@@H](C)C(C)(C)C)cc3)n2)C1` [Example E-57, 3-((R)-1-acryloylpiperidin-3-ylamino)-5-(4-(((S)-3,3-dimethylbutan-2-ylamino)methyl)phenyl-amino)-1,2,4-triazine-6-carboxamide]: the IC50 on BTK-WT (E compounds, Table 17) is not above 10 nM; at ITK (E compounds, Table 17), not above 10 nM.

In the case of `CN1C(=O)CCc2cc(Nc3nc(N[C@@H]4CCCN(C(=O)OC(C)(C)C)C4)nnc3C(N)=O)ccc21` [Example E-72, (R)-tert-butyl 3-(6-carbamoyl-5-(1-methyl-2-oxo-1,2,3,4-tetrahydroquinolin-6-ylamino)-1,2,4-triazin-3-ylamino)piperidine-1-carboxylate], the IC50 was 10 to 100 nM at BTK-WT (E compounds, Table 17) and 1000 to 10000 nM against ITK (E compounds, Table 17).

Regarding `C=CC(=O)N1CCCC[C@H](Nc2nnc(C(N)=O)c(Nc3ccc(C(C)C)cc3)n2)C1` [Example E-19, (S)-3-(1-acryloylazepan-3-ylamino)-5-(4-isopropylphenylamino)-1,2,4-triazine-6-carboxamide], the IC50 is not above 10 nM at BTK-WT (E compounds, Table 17) and 100 to 1000 nM at ITK (E compounds, Table 17).

In the case of `C=CC(=O)N1CCC[C@H](Nc2cnc(C(N)=O)c(Nc3ccc(C(C)C)cc3)n2)C1` [Example C-37, (S)-5-(1-acryloylpiperidin-3-ylamino)-3-(4-isopropylphenylamino) pyrazine-2-carboxamide], the IC50 on BTK-WT (Table 15, C compounds) was not above 10 nM; at ITK (setting [1]), 100 to 1000 nM.

As to `CCC(=O)N1CCC[C@@H](Nc2nnc(C(N)=O)c(Nc3ccc(C(C)(C)C)cc3)n2)C1` [Example C-46, (R)-5-(4-tert-butylphenylamino)-3-(1-propionylpiperidin-3-ylamino)-1,2,4-triazine-6-carboxamide], the IC50 was not above 10 nM on BTK-WT (Table 15, C compounds) and 100 to 1000 nM at ITK (setting [1]).

In the case of `C=CC(=O)N1CCC[C@H](Nc2nnc(C(N)=O)c(Nc3ccc(C(C)(C)C)cc3)n2)C1` [Example C-39, (S)-3-(1-acryloylpiperidin-3-ylamino)-5-(4-tert-butylphenylamino)-1,2,4-triazine-6-carboxamide], the IC50 is not above 10 nM at BTK-WT (Table 15, C compounds) and 10 to 100 nM on ITK (setting [1]).

On to `CCC(=O)N1CCC[C@@H](Nc2nnc(C(N)=O)c(Nc3ccc(C(C)(C)C)cc3)n2)C1` [Example E-35, (R)-5-(4-tert-butylphenylamino)-3-(1-propionylpiperidin-3-ylamino)-1,2,4-triazine-6-carboxamide], for which the IC50 at BTK-WT (E compounds, Table 17) is not above 10 nM; against ITK (E compounds, Table 17) it was 100 to 1000 nM.

With `C=CC(=O)N1CCC[C@@H](Nc2nnc(C(N)=O)c(Nc3ccc4c(c3)CCC(=O)N4C)n2)C1` [Example E-71, (R)-3-(1-acryloylpiperidin-3-ylamino)-5-(1-methyl-2-oxo-1,2,3,4-tetrahydroquinolin-6-ylamino)-1,2,4-triazine-6-carboxamide], the IC50 was not above 10 nM on BTK-WT (E compounds, Table 17) and not above 10 nM against ITK (E compounds, Table 17).

With `C=CC(=O)N[C@@H]1CCCC[C@H]1Nc1nnc(C(N)=O)c(Nc2ccc(C(C)C)cc2)n1` [Example E-28, 3-((1R,2R)-2-acrylamidocyclo-hexylamino)-5-(4-isopropylphenylamino)-1,2,4-triazine-6-carboxamide], the IC50 at BTK-WT (E compounds, Table 17) was not above 10 nM; at ITK (E compounds, Table 17) it was 100 to 1000 nM.

For the compound `C=CC(=O)N1CCC(C)(c2ccc(Nc3nc(N[C@@H]4CCCN(C(=O)C=C)C4)nnc3C(N)=O)cc2)CC1` [Example E-32, (R)-5-(4-(1-acryloyl-4-methylpiperidin-4-yl)phenylamino)-3-(1-acryloylpiperidin-3-ylamino)-1,2,4-triazine-6-carboxamide], the IC50 on BTK-WT (E compounds, Table 17) is not above 10 nM; against ITK (E compounds, Table 17), not above 10 nM.

Take `CN(c1cnc(C(N)=O)c(Nc2ccc(C3(C)CCN(C4CCCC4)CC3)cc2)n1)[C@@H]1CCN(C(=O)C(F)(F)F)C1` [Example E-107, (R)-3-(4-(1-cyclopentyl-4-methylpiperidin-4-yl)phenylamino)-5-(methyl(1-(2,2,2-trifluoroacetyl)pyrrolidin-3-yl)amino)pyrazine-2-carboxamide]: the IC50 on BTK-WT (E compounds, Table 17) was not above 10 nM; against ITK (E compounds, Table 17), not above 10 nM.

For the compound `C=CC(=O)N1CCC[C@H](Nc2nnc(C(N)=O)c(Nc3ccc(-c4ncco4)cc3)n2)C1` [Example C-34, (S)-3-(1-acryloylpiperidin-3-ylamino)-5-(4-(oxazol-2-yl)phenylamino)-1,2,4-triazine-6-carboxamide], the IC50 was not above 10 nM on BTK-WT (Table 15, C compounds) and 10 to 100 nM at ITK (setting [1]).

`C=CC(=O)N1CCC[C@@H](Nc2nnc(C(N)=O)c(Nc3ccc(CN[C@@H](C)C(C)(C)C)cc3)n2)C1` [Example C-73, 3-((R)-1-acryloylpiperidin-3-ylamino)-5-(4-(((S)-3,3-dimethylbutan-2-ylamino)methyl)phenyl-amino)-1,2,4-triazine-6-carboxamide]: the IC50 at BTK-WT (Table 15, C compounds) is not above 10 nM; against ITK (setting [1]), not above 10 nM.

`C=CC(=O)N1CCC[C@H](Nc2nnc(C(N)=O)c(Nc3ccc(C(C)(C)C)cc3)n2)C1` [Example E-23, (S)-3-(1-acryloylpiperidin-3-ylamino)-5-(4-tert-butylphenylamino)-1,2,4-triazine-6-carboxamide]: the IC50 at BTK-WT (E compounds, Table 17) was not above 10 nM; on ITK (E compounds, Table 17), 10 to 100 nM.

Regarding `C=CC(=O)N1CCC[C@H](Nc2nnc(C(N)=O)c(Nc3ccc(-c4ncco4)cc3)n2)C1` [Example E-18, (S)-3-(1-acryloylpiperidin-3-ylamino)-5-(4-(oxazol-2-yl)phenylamino)-1,2,4-triazine-6-carboxamide], the half-inhibitory concentration (IC50) was not above 10 nM at BTK-WT (E compounds, Table 17) and 10 to 100 nM against ITK (E compounds, Table 17).

On to `CN(c1cnc(C(N)=O)c(Nc2ccc(C3(C)CCN(C4CC4)CC3)cc2)n1)[C@@H]1CCN(C(=O)C(F)(F)F)C1` [Example E-105, (R)-3-(4-(1-cyclopropyl-4-methylpiperidin-4-yl)phenylamino)-5-(methyl(1-(2,2,2-trifluoroacetyl)pyrrolidin-3-yl)amino)pyrazine-2-carboxamide], for which the IC50 on BTK-WT (E compounds, Table 17) is not above 10 nM; at ITK (E compounds, Table 17) it was not above 10 nM.
